Data from patent US20220388969A1, “SUBSTITUTED 3,4-DIHYDROQ[…] THE TREATMENT AND PROPHYLAXIS OF HEPATITIS B VIRUS INFECTION” (priority 2019, published 2022).

What was measured:
[1] = test system: HBeAg level in HepDES19 cells (surrogate marker for HBV cccDNA); experiment: Engineered HepDES19 primary screen assay (HBeAg as surrogate marker for cccDNA); type: cell-based; conditions: Hepatitis B virus, 120 h; HepDES19 cells, 5 days incubation with compound, HBeAg ELISA; read-out: IC50 (HBeAg level, HepDES19 primary screen assay)
Text: The assay was employed to screen for novel cccDNA inhibitors. HepDES19 is a cccDNA-producing cell line. In this cell line, HBeAg in the cell culture supernatant as surrogate marker, as HBeAg production depends on cccDNA level and activity. HepDES19 is an engineered cell line which contains a 1.1 unit length HBV genome, and pgRNA transcription from the transgene is controlled by Tetracycline (Tet). In the absence of Tet, pgRNA transcription will be induced, but HBV e antigen (HBeAg) could not be produced from this pgRNA due to very short leader sequence before the HBeAg start codon and the start codon is disrupted. Only after cccDNA is formed, the missing leader sequence and start codon mutation would be restored from the 3′-terminal redundancy of pgRNA, and then HBeAg could be synthesized. Therefore, HBeAg could be used as a surrogate marker for cccDNA (Zhou, T. et al., Antiviral Res.(2006), 72(2), 116-124; Guo, H. et al., J. Virol. (2007), 81(22), 12472-12484).
HepDES19 cells were seeded at 2×10^6 cells per T150 flask and cultured with the culture medium (Dulbecco's Modified Eagle Medium: Nutrient Mixture F-12 [DMEM-F12, Gibco Cat. 11320-82], 10% Fetal Bovine Serum [FBS, Clontech Cat. 631101], 0.1 mM Non-Essential Amino Acids Solution [NEAA, Gibco Cat. 11140-050], 50 μg/mL Penicillin-Streptomycin [PS, Invitrogen Cat. 15140-163], 500 μg/mL Geneticin [G418, Invitrogen Cat. 10131-027]) containing 3 μg/mL Tet (Sigma, Cat. 87128) for 5 days. Cells were then seeded at 4×10^6 cells per T150 in the same culture medium as described above in the absence of Tet for 8 days. Cells were then harvested and frozen at density of 2×10^6 cells per mL. For compound testing, the frozen cells were thawed and seeded into 96-well plates at a density of 6 ×10^4 cells per well. At 24hours after seeding, half log serial dilutions of compounds made with Dimethyl sulfoxide (DMSO, Sigma, Cat. D2650) were further diluted with the same culture medium as described above before they were added to the cells to reach desired final compound concentrations and 1% DMSO concentration. Plates were then incubated at 37° C. for another 5 days before measurement of HBeAg level and cell viability. Intracellular HBeAg level were measured with enzyme-linked immunosorbent assay (ELISA) kit (Shanghai Kehua Diagnostic Medical Products Co., Ltd). Cell viability was assessed using Cell Counting Kit-8 (DonJindo, Cat. CK04-20). IC50 values were derived from the dose-response curve using 4 parameter logistic curve fit method.
The compounds of the present invention were tested for their capacity to inhibit extracellular HBeAg level as described herein.

[2] = test system: HBsAg in HBV-infected primary human hepatocytes; experiment: Cryopreserved primary human hepatocytes (PHH) HBV infection assay, extracellular HBsAg; type: cell-based; conditions: Hepatitis B virus, Hepatocyte, 216 h, read-out: HBsAg IC50
Method: This assay is used to confirm the anti-HBV effect of the compounds in HBV PHH infection assay. Cryopreserved PHH (BioreclamationlVT, Lot YJM) was thawed at 37° C. and gently transferred into pre-warmed InVitroGRO HT medium (BioreclamationIVT, Cat. S03317). The mixture was centrifuged at 70 relative centrifugal force (RCF) for 3 minutes at RT, and the supernatant was discarded. Pre-warmed InVitroGRO CP medium (BioreclamationlVT, Cat# S03316) was added to the cell pellet to gently re-suspend cells. The cells were seeded at the density of 5.8×10^4 cells per well to collagen I coated 96-well plate (Gibco, Cat. A1142803) with the InVitroGRO CP medium. All plates were incubated at 37° C. with 5% CO2 and 85% humidity.
At 20 hours after plating, the medium was changed to PHH culture medium (Dulbecco's Modified Eagle Medium (DMEM)/F12 (1:1) (Gibco, Cat. 11320-033), 10% fetal bovine serum (Gibco Cat. 10099141), 100 U/mL penicillin, 100 μg/mL streptomycin (Gibco, Cat. 151401-122), 5 ng/mL human epidermal growth factor (Invitrogen Cat. PHG0311L), 20 ng/mL dexamethasone (Sigma, Cat. D4902) and 250 ng/mL human recombinant insulin (Gibco, Cat. 12585-014)). And the cells were incubated at 37° C. with 5% CO2 and 85% humidity for 4 hours. The medium was then changed to pre-warmed PHH culture medium containing 4% polyethylene glycol (PEG) MW8000 (Sigma, Cat. P1458-50ML) and 1% DMSO (Sigma, Cat. D2650). 5.8×10^6 genomic equivalents of HBV were added into the medium.
At 24 hours post-infection, the cells were gently washed with PBS and refreshed with PHH culture medium supplemented with 1% DMSO, and 0.25 mg/mL Matrix gel (Corning, Cat. 356237) at 200 μL per well. All plates were immediately placed in at 37° C. CO2 incubator.
24 hours later, serial dilutions of compounds made with DMSO were further diluted with the same culture medium (PHH culture medium supplemented with 1% DMSO and 0.25 mg/mL Matrix gel as described above) before they were added to the cells to reach desired final compound concentrations and 1% DMSO concentration. The medium containing the compounds were refreshed every three days.
At 9 days post-compound treatment, extracellular HBsAg level were measured with Chemiluminescence Immuno Assay (CLIA) kit (Autobio, HBsAg Quantitative CLIA).
HBsAg IC50 values were derived from the dose-response curve using 4 parameter logistic curve fit method. The compounds of formula (I) have HBsAg IC50<20 μM, particularly <1 μM.

Row | SMILES | IC50 [1] | IC50 [2]
1 | O=C(O)C1NC(c2ccc(Cl)cc2)=Nc2c(Cl)cccc21 (stereo not shown) [Example 3, 8-chloro-2-(4-chlorophenyl)-3,4-dihydroquinazoline-4-carboxylic Acid] | 10.3 µM | 1.5 µM
2 | COC(=O)C1NC(c2ccc(Br)cc2)=Nc2c(Cl)cccc21 (stereo not shown) [Example 12, methyl 2-(4-bromophenyl)-8-chloro-3,4-dihydroquinazoline-4-carboxylate] | 0.33 µM | 1.36 µM
3 | Cc1cc(OCCOC2CC(C(=O)O)C2)ccc1C1=Nc2c(Cl)cccc2C(C)N1 (stereo not shown) [Example 22, 3-[2-[4-(8-chloro-4-methyl-3,4-dihydroquinazolin-2-yl)-3-methyl-phenoxy]ethoxy]cyclobutanecarboxylic Acid] | 8.43 µM | 0.67 µM
4 | O=C(O)C1NC(c2cccc(Br)c2)=Nc2cc(C(F)(F)F)ccc21 (stereo not shown) [Example 6, 2-(3-bromophenyl)-7-(trifluoromethyl)-3,4-dihydroquinazoline-4-carboxylic Acid] | 3.43 µM | 7.18 µM
5 | CC1NC(c2ccc(OCCOC3CC(C(=O)O)C3)cc2)=Nc2cc(C(F)(F)F)ccc21 (stereo not shown) [Example 19, 3-[2-[4-[4-methyl-7-(trifluoromethyl)-3,4-dihydroquinazolin-2-yl]phenoxy]ethoxy]cyclobutanecarboxylic Acid] | 4.4 µM | 7.63 µM
6 | Cc1cc(C2=Nc3c(Cl)cccc3C(C(=O)O)N2)ccc1Br (stereo not shown) [Example 5, 2-(4-bromo-3-methyl-phenyl)-8-chloro-3,4-dihydroquinazoline-4-carboxylic Acid] | 0.56 µM | 4.37 µM
7 | COC(=O)c1ccc(-c2csc(C3=Nc4c(Cl)cccc4C(C)N3)n2)cc1 (stereo not shown) [Example 32, methyl 4-[2-(8-chloro-4-methyl-3,4-dihydroquinazolin-2-yl)thiazol-4-yl]benzoate] | 0.86 µM | 0.024 µM
8 | CC(C)C1NC(c2ccc(Br)cc2)=Nc2c(Cl)cccc21 (stereo not shown) [Example 36, 2-(4-bromophenyl)-8-chloro-4-isopropyl-3,4-dihydroquinazoline] | 6.53 µM | 0.042 µM
9 | COc1ccc(C2=Nc3c(Cl)cccc3C(C(=O)NCCO)N2)cc1 (stereo not shown) [Example 16, 8-chloro-N-(2-hydroxyethyl)-2-(4-methoxyphenyl)-3,4-dihydroquinazoline-4-carboxamide] | 2.03 µM | 4.54 µM
10 | O=C(O)C1NC(c2ccc(Br)cc2)=Nc2cc(C(F)(F)F)ccc21 (stereo not shown) [Example 7, 2-(4-bromophenyl)-7-(trifluoromethyl)-3,4-dihydroquinazoline-4-carboxylic Acid] | 3.01 µM | 2.31 µM
11 | COc1ccc(C2=Nc3c(Cl)cccc3C(C(=O)O)N2)cc1 (stereo not shown) [Example 4, 8-chloro-2-(4-methoxyphenyl)-3,4-dihydroquinazoline-4-carboxylic Acid] | 0.88 µM | 1.95 µM
12 | NC(=O)C1NC(c2ccc(Br)cc2)=Nc2c(Cl)cccc21 (stereo not shown) [Example 13, 2-(4-bromophenyl)-8-chloro-3,4-dihydroquinazoline-4-carboxamide] | 0.07 µM | 2.84 µM
13 | O=C(O)C1NC(c2ccc(Br)cc2)=Nc2c(Cl)cccc21 (stereo not shown) [Example 1, 2-(4-bromophenyl)-8-chloro-3,4-dihydroquinazoline-4-carboxylic Acid] | 5.65 µM | 3.07 µM
14 | O=C(O)C1NC(c2ccccc2)=Nc2c(Cl)cccc21 (stereo not shown) [Example 2, 8-chloro-2-phenyl-3,4-dihydroquinazoline-4-carboxylic Acid] | 2.99 µM | 0.415 µM
15 | OCC1NC(c2ccc(Br)cc2)=Nc2c(Cl)cccc21 (stereo not shown) [Example 38, [2-(4-bromophenyl)-8-chloro-3,4-dihydroquinazolin-4-yl]methanol] | 5.32 µM | 
16 | CC1NC(c2cccc(Br)c2)=Nc2cc(C(F)(F)F)ccc21 (stereo not shown) [Example 33, 2-(3-bromophenyl)-4-methyl-7-(trifluoromethyl)-3,4-dihydroquinazoline] | 0.86 µM | 
17 | CC1NC(c2nc(Br)cs2)=Nc2c(Cl)cccc21 (stereo not shown) [Example 31, 4-bromo-2-(8-chloro-4-methyl-3,4-dihydroquinazolin-2-yl)thiazole] | 2.03 µM | 
18 | CC1(C(=O)O)NC(c2ccc(Br)cc2)=Nc2c(Cl)cccc21 (stereo not shown) [Example 11, 2-(4-bromophenyl)-8-chloro-4-methyl-3H-quinazoline-4-carboxylic Acid] | 0.13 µM | 
19 | CC1c2ccc(C(F)(F)F)cc2N=C(c2cccc(Br)c2)N1CCO (stereo not shown) [Example 25, 2-[2-(3-bromophenyl)-4-methyl-7-(trifluoromethyl)-4H-quinazolin-3-yl]ethanol] | 9.55 µM | 
20 | CC1NC(c2ccc(OCCOCC(=O)O)cc2)=Nc2c(Cl)cccc21 (stereo not shown) [Example 23, 2-[2-[4-(8-chloro-4-methyl-3,4-dihydroquinazolin-2-yl)phenoxy]ethoxy]acetic Acid] | 1.78 µM | 
